Experimental data reported in patent US20190269626A1, “Hair Protection Effect of Vanillyl Alkyl Ether and the Application thereof” (CORUM INC., priority 2018, published 2019).

Key:
[1] = tested on: LPS-induced inflammatory cytokines (IL-6 and IL-8) in macrophages; assay: LPS-induced inflammatory cytokines (IL-6 and IL-8) in macrophages; format: cell-based
Description: One preferred example of this embodiment is application of VBE on decreasing LPS-induced inflammation (IL-6, and IL-8).

[2] = tested on: PMA-induced inflammatory cytokines (IL-6 and IL-8) in HFDPC (human follicle dermal papilla cells); assay: PMA-induced inflammatory cytokines (IL-6 and IL-8) in HFDPC; format: cell-based
Description: Still another example of this embodiment is application of VBE on decreasing PMA-induced inflammation (IL-6 and IL-8). […] Capsaicin, nonivamide, and minoxidil are effectless to PMA-induced IL-6, and IL-8.

[3] = tested on: ROS generation in HFDPC; assay: ROS generation with/without pollutant in HFDPC; format: cell-based, human; settings: for ROS generation, pollutant-stimulated condition: pollutant-triggered; for ROS generation, basal condition: without pollutant (basal)
Description: FIG. 4A to FIG. 4B respectively presents with/without pollutant-triggered ROS generation on HFDPC by VBE, and CAP (capsaicin). […] Hair follicle is a mini-organ of the skin which contains dermal papilla cells (DPC) in the bottom site surrounded with matrix cells (keratinocytes) and melanocytes. DPC play an important role to regulate matrix cell proliferation, differentiation and apoptosis during hair cycles, and matrix cells are responsible for forming the major structures of the hair shaft. In the above examples, we established an in vitro model to investigate hair loss mechanism caused by air pollution. Based on our data, SRM1649b (urban dust) PM2.5 is able to activate AhR pathway, enhance ROS generation, up-regulate gene expression of alopecia-related factors (TGF-β2, TNF-α and PTGS2) and stimulate inflammatory cytokines (IL-6, IL-8, and GM-CSF) in human hair follicle dermal papilla cells. […] The mechanism of air pollution induced hair loss is illustrated in FIG. 5.

[4] = tested on: hair loss related genes expression (CYP1B1, TGF-β2, and TNF-α) in HFDPC; assay: Pollutant-induced hair loss related genes expression in HFDPC; format: cell-based, human
Description: Still another example of this embodiment is application of VBE on decreasing pollutant-induced hair loss related genes expression (CYP1B1, TGF-β2, and TNF-α) on HFDPC. FIG. 3 presents pollutant-induced hair loss related genes expression (CYP1B1, TGF-β2, and TNF-α) by VBE, and DMF. DMF is 3′,4′-dimethoxyflavone, and is a AhR (aryl hydrocarbon receptor) antagonist. Pollutants usually generate damages though activating the transcription factor AhR.
(§1) FIG. 5 presents how to improve hair loss of human hair follicle dermal papilla cells with VBE according to the above examples. Hair follicle is a mini-organ of the skin which contains dermal papilla cells (DPC) in the bottom site surrounded with matrix cells (keratinocytes) and melanocytes. DPC play an important role to regulate matrix cell proliferation, differentiation and apoptosis during hair cycles, and matrix cells are responsible for forming the major structures of the hair shaft. In the above examples, we established an in vitro model to investigate hair loss mechanism caused by air pollution. Based on our data, SRM1649b (urban dust) PM2.5 is able to activate AhR pathway, enhance ROS generation, up-regulate gene expression of alopecia-related factors (TGF-β2, TNF-α and PTGS2) and stimulate inflammatory cytokines (IL-6, IL-8, and GM-CSF) in human hair follicle dermal papilla cells. […] The mechanism of air pollution induced hair loss is illustrated in FIG. 5.

[5] = tested on: 5-alpha reductase; assay: 5-alpha reductase activity: DHT/Testosterone ratio in NHEK with [14C] testosterone; format: cell-based, human
[6] = tested on: AhR pathway in human hair follicle dermal papilla cells; assay: Air pollution (SRM1649b urban dust PM2.5) in vitro hair loss model in HFDPC: AhR activity and GM-CSF; format: cell-based
Description: as §1, with “Hair” for “FIG. 5 presents how to improve hair loss of human hair follicle dermal papilla cells with VBE according to the above examples. Hair”

[7] = tested on: anagen hairs and telogen hairs; assay: Clinical evaluation of VBE versus placebo, phototrichogram hair growth cycle analysis; format: in vivo, human; settings: topical once a day for 84 days, half-head versus placebo, subjects with androgenetic alopecia
Method: Another example of this embodiment is clinical evaluation of the effect of VBE versus placebo in the male and female subjects after repeated application of 84 days through. The clinical test is finished by Spincontrol, France. The evaluation was performed using phototrichogram for hair growth cycle analysis. 11 healthy subjects from 25 to 49 years with a chronic hair loss/alopecia of androgenetic origin were selected for this study.

Compound | LPS-induced IL-6 [1] | LPS-induced IL-8 [1] | PMA-induced IL-6 [2] | PMA-induced IL-8 [2] | ROS generation, pollutant-stimulated condition [3] | ROS generation, basal condition [3] | pollutant-induced CYP1B1 gene expression [4] | pollutant-induced TGF-β2 gene expression [4] | pollutant-induced TNF-α gene expression [4] | other results
COc1cc(CNC(=O)CCCC/C=C/C(C)C)ccc1O [Capsaicin] | decreased | decreased | no effect | no effect | no effect | no effect |  |  |  | 
COc1ccc(-c2cc(=O)c3ccccc3o2)cc1OC [DMF, 3′,4′-dimethoxyflavone] |  |  |  |  |  |  | reducing | reducing | reducing | 
Nc1cc(N2CCCCC2)nc(N)[n+]1[O-] [Minoxidil] |  |  | no effect | no effect |  |  |  |  |  | 
CCCCCCCCC(=O)NCc1ccc(O)c(OC)c1 [Nonivamide] | decreased | decreased | no effect | no effect |  |  |  |  |  | 
CCCCOCc1ccc(O)c(OC)c1 [VBE, vanillyl butyl ether] | decrease | decrease | decrease | decrease | decreased | decreased | reduce | reduce | reduce | DHT/Testosterone ratio compared to control ([5]; 50 μg/ml): 64%; DHT/Testosterone ratio, dose dependence ([5]; 1.25 to 50 μg/ml): decreases DHT/Testosterone ratio in a dose dependent manner; AhR activity [6]: attenuating; GM-CSF production [6]: attenuating; Anagen (growing) hair [7]: increased; Telogen (resting or shedding) hair [7]: reduced; enhancement of ratio of Anagen to Telogen [7]: 6%
CC(C)(C)NC(=O)[C@H]1CC[C@H]2[C@@H]3CC[C@H]4NC(=O)C=C[C@]4(C)[C@H]3CC[C@]12C [finasteride] |  |  |  |  |  |  |  |  |  | DHT/testosterone ratio compared to the control condition ([5]; finasteride reference): 1%
